{"source": "patent US12139478B2", "about": "“Compounds, compositions and methods” (Denali Therapeutics Inc., priority 2017, dated 2024)", "tested_on": "ATF4 translation", "experiment": "ATF4 Nano Luciferase reporter integrated stress response (ISR) assay in H4 ATF4-NLuc cells", "assay_type": "cell-based, human", "settings": "H4 ATF4-NLuc (clone 17) cells, compound 30 minutes, then sodium arsenite for 6 additional hours, luminescence readout", "excerpt": "Cellular stress leads to activation of the integrated stress response pathway through one of four eukaryotic initiation factor 2a kinases and halts global translation, while allowing for the translation of select transcripts like ATF4 (activating transcription factor 4) that are important for the response to cellular stress. During normal conditions, small open reading frames (ORFs) in the 5′ UTR of ATF4 occupy the ribosome and prevent translation of the coding sequence of ATF4. During stress conditions however, the ribosome scans past these upstream ORFs and preferentially begins translation at the coding sequence of ATF4. In this way, the translation, and thus protein level of ATF4 is a readout of ISR pathway activation. Thus, a fusion of the uORFs and the beginning of the coding sequence of ATF to a common cellular reporter like nano-luciferase allows for a sensitive and high-throughput readout of ISR pathway activity.\nCompounds as provided herein were tested in the following assay. The ATF4 Nano Luciferase reporter was constructed by fusing the human full length 5′ untranslated region (5′-UTR) and a small portion of the coding sequence of the ATF4 gene upstream of the Nano Luciferase (NLuc) coding sequence lacking it's start codon. Specifically, nucleotides +1 through +364 (relative to the transcriptional start site) of ATF4 transcript variant 2 (NCBI NM_182810.2) flanked 5′ by EcoRI and 3′ by BamHI restriction enzyme sites were synthesized and cloned into the EcoRI/BamHI cloning sites of pLVX-EF1a-IRES-Puro lentivirus vector (Clontech). Lentiviral particles were produced with Lenti-X single shots (VSV-G, Clontech) according to the manufacturer's instructions and used to transduce a human H4 neuroglioma cell line (ATCC HTB-148). H4 cells were selected with 1.25 μg/mL Puromycin, and clonal cell lines generated by limiting dilution. We utilized this cell line to generate an integrated stress response (ISR) assay to evaluate the activity of ISR pathway inhibitors via luminescence readout. The H4 ATF4-NLuc (clone 17) cell line is plated at a density of […] in 96-well or 384-well respectively in DMEM+[…]. 24-hours later test compounds diluted in dimethyl sulfoxide (DMSO) are added for 30 minutes at 37° C., followed by ISR pathway activation with […] sodium arsenite aqueous solution for 6 additional hours. Nano Glo luciferase reagent (N1150, Promega) is added according to manufacturer instructions and the luminescence signal (corresponding to the level of ATF4 translation and thus ISR pathway activation) is read with a standard plate reader with luminescence detection capabilities. […] In the tables below, activity of the tested compounds is provided, and in Table 3 as follows: […]; ++=IC50 1-10 μM; +=IC50>10 μM.", "key": {"[1]": {"settings": "Homo sapiens, 0.5 h, read-out: Activity"}, "[2]": {"settings": "Homo sapiens, 0.5 h, read-out: Biological Example 1 (ATF4 translation, IC50 nM)"}}, "note": "Like-named read-outs stand apart in the source and are kept apart here."}
{"smiles": "O=C(COc1ccc(Cl)cc1)N[C@@H]1CC[C@@H](C(O)COC2CC(OC(F)(F)F)C2)OC1", "note": "(single isomer, unassigned) [Example 63]", "values": [{"measurement": "IC50", "setting": "[1]", "value": "< 1000", "unit": "nM"}, {"measurement": "IC50", "setting": "[2]", "value": 3.9, "unit": "nM"}]}
{"smiles": "O=C(COc1ccc(Cl)cc1)N[C@@H]1CC[C@@H](C(O)COC2CC(OC(F)(F)F)C2)OC1", "note": "(single isomer, unassigned) [Example 64]", "values": [{"measurement": "IC50", "setting": "read-out: Activity", "value": "< 1000", "unit": "nM"}]}
{"smiles": "O=C(N[C@@H]1CC[C@@H](c2nnc(C3CC(OC(F)(F)F)C3)o2)OC1)[C@H]1CCc2cc(F)ccc2O1", "note": "(single isomer, unassigned) [Example 65]", "values": [{"measurement": "IC50", "setting": "[1]", "value": "< 1000", "unit": "nM"}, {"measurement": "IC50", "setting": "[2]", "value": 8.5, "unit": "nM"}]}
{"smiles": "O=C(COc1ccc(Cl)c(F)c1)N[C@@H]1CC[C@@H](c2nnc(C3C[C@H]3COC(F)(F)F)o2)OC1", "note": "(single isomer, unassigned) [Example 69]", "values": [{"measurement": "IC50", "setting": "[1]", "value": "< 1000", "unit": "nM"}]}
{"smiles": "O=C(COc1ccc(Cl)c(F)c1)N[C@@H]1CC[C@@H](c2nnc(C3C[C@H]3COC(F)(F)F)o2)OC1", "note": "(single isomer, unassigned) [Example 70]", "values": [{"measurement": "IC50", "setting": "read-out: Activity", "value": "< 1000", "unit": "nM"}, {"measurement": "IC50", "setting": "[2]", "value": 8, "unit": "nM"}]}
{"smiles": "CC(O)(COC1CC(OC(F)(F)F)C1)[C@@H]1CC[C@@H](NC(=O)COc2ccc(Cl)cc2)CO1", "note": "(single isomer, unassigned) [Example 71]", "values": [{"measurement": "IC50", "setting": "[1]", "value": "< 1000", "unit": "nM"}]}
{"smiles": "CC(O)(COC1CC(OC(F)(F)F)C1)[C@@H]1CC[C@@H](NC(=O)COc2ccc(Cl)cc2)CO1", "note": "(single isomer, unassigned) [Example 72]", "values": [{"measurement": "IC50", "setting": "read-out: Activity", "value": "< 1000", "unit": "nM"}]}
{"smiles": "O=C(COc1ccc(Cl)c(F)c1)N[C@@H]1CC[C@@H](c2nnc([C@H]3C[C@@H](OC(F)(F)F)C3)o2)OC1", "note": "[Example 1, 2-(4-chloro-3-fluoro-phenoxy)-N-[(3R,6S)-6-[5-[3-cis-(trifluoromethoxy)cyclobutyl]-1,3,4-oxadiazol-2-yl]tetrahydropyran-3-yl]acetamide]", "values": [{"measurement": "IC50", "setting": "[1]", "value": "< 1000", "unit": "nM"}]}
{"smiles": "O=C(COc1ccc(Cl)cc1)N[C@@H]1CC[C@@H](c2nnc([C@H]3C[C@@H](OC(F)(F)F)C3)o2)OC1", "note": "[Example 2, 2-(4-chlorophenoxy)-N-[(3R,6S)-6-[5-[3-cis-(trifluoromethoxy)cyclobutyl]-1,3,4-oxadiazol-2-yl]tetrahydropyran-3-yl]acetamide]", "values": [{"measurement": "IC50", "setting": "[1]", "value": "< 1000", "unit": "nM"}, {"measurement": "IC50", "setting": "[2]", "value": 2.7, "unit": "nM"}]}
{"smiles": "O=C(COC1CC(OC(F)(F)F)C1)N[C@@H]1CC[C@@H](c2nnc([C@H]3C[C@@H](OC(F)(F)F)C3)o2)OC1", "note": "(stereo partly drawn) [Example 3, 2-[3-cis-(trifluoromethoxy)cyclobutoxy]-N-[(3R,6S)-6-[5-[(cis)-3-(trifluoromethoxy)cyclobutyl]-1,3,4-oxadiazol-2-yl]tetrahydropyran-3-yl]acetamide]", "values": [{"measurement": "IC50", "setting": "[1]", "value": "< 1000", "unit": "nM"}]}
{"smiles": "O=C(N[C@@H]1CC[C@@H](c2nnc([C@H]3C[C@@H](OC(F)(F)F)C3)o2)OC1)[C@H]1C[C@@H]1COC(F)(F)F", "note": "[Example 4, (1R,2R)—N-[(3R,6S)-6-[5-[3-cis-(trifluoromethoxy)cyclobutyl]-1,3,4-oxadiazol-2-yl]tetrahydropyran-3-yl]-2-(trifluoromethoxymethyl)cyclopropanecarboxamide]", "values": [{"measurement": "IC50", "setting": "[1]", "value": "1000 to 10000", "unit": "nM"}]}
{"smiles": "O=C(COC1CC(OC(F)(F)F)C1)NC12CCC(c3nnc([C@H]4C[C@@H](OC(F)(F)F)C4)o3)(CC1)OC2", "note": "(stereo partly drawn) [Example 14, 2-[3-cis-(trifluoromethoxy)cyclobutoxy]-N-[1-[5-[3-cis-(trifluoromethoxy)cyclobutyl]-1,3,4-oxadiazol-2-yl]-2-oxabicyclo[2.2.2]octan-4-yl]acetamide]", "values": [{"measurement": "IC50", "setting": "[1]", "value": "< 1000", "unit": "nM"}]}
{"smiles": "O=C(COC1CC(OC(F)(F)F)C1)N[C@@H]1CC[C@@H](c2cnn([C@H]3C[C@@H](OC(F)(F)F)C3)n2)OC1", "note": "(stereo partly drawn) [Example 17, 2-[3-cis-(trifluoromethoxy)cyclobutoxy]-N-[(3R,6S)-6-[2-[3-cis-(trifluoromethoxy)cyclobutyl]triazol-4-yl]tetrahydropyran-3-yl]acetamide]", "values": [{"measurement": "IC50", "setting": "[1]", "value": "< 1000", "unit": "nM"}]}
{"smiles": "O=C(COC1CC(OC(F)(F)F)C1)NC1CC[C@@H](c2cn([C@H]3C[C@@H](OC(F)(F)F)C3)nn2)OC1", "note": "(stereo partly drawn) [Example 18, 2-[3-cis-(trifluoromethoxy)cyclobutoxy]-N-[(3R,6S)-6-[1-[3-cis-(trifluoromethoxy)cyclobutyl]triazol-4-yl]tetrahydropyran-3-yl]acetamide]", "values": [{"measurement": "IC50", "setting": "[1]", "value": "< 1000", "unit": "nM"}]}
{"smiles": "O=C(COC1CC(OC(F)(F)F)C1)N[C@@H]1CC[C@@H](c2nnc(-c3ccc(Cl)c(F)c3)o2)OC1", "note": "(stereo partly drawn) [Example 19, N-[(3R,6S)-6-[5-(4-chloro-3-fluoro-phenyl)-1,3,4-oxadiazol-2-yl]tetrahydropyran-3-yl]-2-[3-cis-(trifluoromethoxy)cyclobutoxy]acetamide]", "values": [{"measurement": "IC50", "setting": "[1]", "value": "< 1000", "unit": "nM"}, {"measurement": "IC50", "setting": "[2]", "value": 29.5, "unit": "nM"}]}
{"smiles": "O=C(COc1ccc(F)cc1)N[C@@H]1CC[C@@H](c2nnc(C3CC(OC(F)(F)F)C3)o2)OC1", "note": "(stereo partly drawn) [Example 20, 2-(4-fluorophenoxy)-N-[(3R,6S)-6-[5-[3-cis-(trifluoromethoxy)cyclobutyl]-1,3,4-oxadiazol-2-yl]tetrahydropyran-3-yl]acetamide]", "values": [{"measurement": "IC50", "setting": "[1]", "value": "< 1000", "unit": "nM"}]}
{"smiles": "O=C(COc1ccc(Cl)c(F)c1)NC12CCC(c3nnc([C@H]4C[C@@H](OC(F)(F)F)C4)o3)(CC1)OC2", "note": "[Example 21, 2-(4-chloro-3-fluoro-phenoxy)-N-[1-[5-[3-cis-(trifluoromethoxy)cyclobutyl]-1,3,4-oxadiazol-2-yl]-2-oxabicyclo[2.2.2]octan-4-yl]acetamide]", "values": [{"measurement": "IC50", "setting": "[1]", "value": "< 1000", "unit": "nM"}, {"measurement": "IC50", "setting": "[2]", "value": 4, "unit": "nM"}]}
{"smiles": "O=C(COc1ccc(F)cc1)NC12CCC(c3nnc([C@H]4C[C@@H](OC(F)(F)F)C4)o3)(CC1)OC2", "note": "[Example 22, 2-(4-fluorophenoxy)-N-[1-[5-[3-cis-(trifluoromethoxy)cyclobutyl]-1,3,4-oxadiazol-2-yl]-2-oxabicyclo[2.2.2]octan-4-yl]acetamide]", "values": [{"measurement": "IC50", "setting": "[1]", "value": "< 1000", "unit": "nM"}]}
{"smiles": "COC(=O)[C@@H]1CC[C@@H](NC(=O)COc2ccc(Cl)cc2)CO1", "note": "[Example 23, Methyl (2S,5R)-5-[[2-(4-chlorophenoxy)acetyl]amino]tetrahydropyran-2-carboxylate]", "values": [{"measurement": "IC50", "setting": "[1]", "value": "1000 to 10000", "unit": "nM"}]}
{"smiles": "O=C(COc1ccc(F)c(F)c1)N[C@@H]1CC[C@@H](c2nnc([C@H]3C[C@@H](OC(F)(F)F)C3)o2)OC1", "note": "[Example 24, 2-(3,4-difluorophenoxy)-N-((3R,6S)-6-(5-(3-cis-(trifluoromethoxy)cyclobutyl)-1,3,4-oxadiazol-2-yl)tetrahydro-2H-pyran-3-yl)acetamide]", "values": [{"measurement": "IC50", "setting": "[1]", "value": "< 1000", "unit": "nM"}, {"measurement": "IC50", "setting": "[2]", "value": 10.5, "unit": "nM"}]}
{"smiles": "O=C(COc1ccc(F)c(F)c1)NC12CCC(c3nnc([C@H]4C[C@@H](OC(F)(F)F)C4)o3)(CC1)OC2", "note": "[Example 25, 2-(3,4-difluorophenoxy)-N-[1-[5-[3-cis-(trifluoromethoxy)cyclobutyl]-1,3,4-oxadiazol-2-yl]-2-oxabicyclo[2.2.2]octan-4-yl]acetamide]", "values": [{"measurement": "IC50", "setting": "[1]", "value": "< 1000", "unit": "nM"}]}
{"smiles": "O=C(COc1ccc(Cl)cc1)NC12CCC(c3nnc([C@H]4C[C@@H](OC(F)(F)F)C4)o3)(CC1)OC2", "note": "[Example 26, 2-(4-chlorophenoxy)-N-[1-[5-[3-cis-(trifluoromethoxy)cyclobutyl]-1,3,4-oxadiazol-2-yl]-2-oxabicyclo[2.2.2]octan-4-yl]acetamide]", "values": [{"measurement": "IC50", "setting": "[1]", "value": "< 1000", "unit": "nM"}, {"measurement": "IC50", "setting": "[2]", "value": 2.2, "unit": "nM"}]}
{"smiles": "O=C(COc1ccccc1)N[C@@H]1CC[C@@H](c2nnc([C@H]3C[C@@H](OC(F)(F)F)C3)o2)OC1", "note": "[Example 27, 2-phenoxy-N-[(3R,6S)-6-[5-[3-cis-(trifluoromethoxy)cyclobutyl]-1,3,4-oxadiazol-2-yl]tetrahydropyran-3-yl]acetamide]", "values": [{"measurement": "IC50", "setting": "[1]", "value": "< 1000", "unit": "nM"}]}
